Test system: 186277-243-T-J2-PDC complex spheroid viability
Experiment: Anticancer human tumor 186277-243-T-J2-PDC patient-derived colon adenocarcinoma cell line growth inhibition [GQUAD]
Details: for IC50: curve of first compound; for viability, T/C: stronger effect = lower value
Summary of the method: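 Multi-cell-type spheroids of tumor cells with HUVEC and mesenchymal stem cells, treated with drug combinations. Concentrations descend in half-log steps from near clinical Cmax, or from 10 microM where Cmax is unknown; viability read-out.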

[1] = second compound 0.0316 µM, first compound 0.0316 µM
[2] = second compound 0.0316 µM, first compound 0.1 µM
[3] = second compound 0.0316 µM, first compound 0.316 µM
[4] = second compound 0.0316 µM, first compound 1 µM
[5] = second compound 0.0316 µM, first compound 3.16 µM
[6] = second compound 0.0316 µM, first compound 10 µM
[7] = second compound 0.1 µM, first compound 0.0316 µM
[8] = second compound 0.1 µM, first compound 0.1 µM
[9] = second compound 0.1 µM, first compound 0.316 µM
[10] = second compound 0.1 µM, first compound 1 µM
[11] = second compound 0.1 µM, first compound 3.16 µM
[12] = second compound 0.1 µM, first compound 10 µM
[13] = second compound 0.316 µM, first compound 0.0316 µM
[14] = second compound 0.316 µM, first compound 0.1 µM
[15] = second compound 0.316 µM, first compound 0.316 µM
[16] = second compound 0.316 µM, first compound 1 µM
[17] = second compound 0.316 µM, first compound 3.16 µM
[18] = second compound 0.316 µM, first compound 10 µM
[19] = second compound 1 µM, first compound 0.0316 µM
[20] = second compound 1 µM, first compound 0.1 µM
[21] = second compound 1 µM, first compound 0.316 µM
[22] = second compound 1 µM, first compound 1 µM
[23] = second compound 1 µM, first compound 3.16 µM
[24] = second compound 1 µM, first compound 10 µM
[25] = second compound 3.16 µM, first compound 0.0316 µM
[26] = second compound 3.16 µM, first compound 0.1 µM
[27] = second compound 3.16 µM, first compound 0.316 µM
[28] = second compound 3.16 µM, first compound 1 µM
[29] = second compound 3.16 µM, first compound 3.16 µM
[30] = second compound 3.16 µM, first compound 10 µM
[31] = second compound 10 µM, first compound 0.0316 µM
[32] = second compound 10 µM, first compound 0.1 µM
[33] = second compound 10 µM, first compound 0.316 µM
[34] = second compound 10 µM, first compound 1 µM
[35] = second compound 10 µM, first compound 3.16 µM
[36] = second compound 10 µM, first compound 10 µM
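Also: spheroids exposed to drugs for 7 days.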
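For viability, T/C in this document: 100% = DMSO vehicle control viability.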

Structure (SMILES): COc1cc(C2c3cc4c(cc3C(OC3OC5COC(C)OC5C(O)C3O)C3COC(=O)C23)OCO4)cc(OC)c1O (centres undefined) + Cc1cnc(CNC(=O)c2c(=O)c3ccc(N4CCCN(C)CC4)nc3n3c2sc2ccccc23)cn1
- IC50 (second compound 0.0316 µM): 985 nM
- IC50 (second compound 0.1 µM): 1080 nM
- IC50 (second compound 0.316 µM): 1630 nM
- IC50 (second compound 1 µM): < 31.6 nM
- IC50 (second compound 3.16 µM): 169 nM
- IC50 (second compound 10 µM): < 31.6 nM
- viability, T/C [1]: 105%
- viability, T/C [2]: 93.9%
- viability, T/C [3]: 78.2%
- viability, T/C [4]: 45.1%
- viability, T/C [5]: 33.3%
- viability, T/C [6]: 15.8%
- viability, T/C [7]: 70.8%
- viability, T/C [8]: 82.5%
- viability, T/C [9]: 69.3%
- viability, T/C [10]: 46.5%
- viability, T/C [11]: 37.3%
- viability, T/C [12]: 20%
- viability, T/C [13]: 80.8%
- viability, T/C [14]: 69.8%
- viability, T/C [15]: 55.9%
- viability, T/C [16]: 53.7%
- viability, T/C [17]: 53.3%
- viability, T/C [18]: 20.3%
- viability, T/C [19]: 43.6%
- viability, T/C [20]: 50.8%
- viability, T/C [21]: 57.5%
- viability, T/C [22]: 44.9%
- viability, T/C [23]: 42.3%
- viability, T/C [24]: 20%
- viability, T/C [25]: 50.9%
- viability, T/C [26]: 51%
- viability, T/C [27]: 51.4%
- viability, T/C [28]: 38.8%
- viability, T/C [29]: 30.7%
- viability, T/C [30]: 19.6%
- viability, T/C [31]: 42.7%
- viability, T/C [32]: 35%
- viability, T/C [33]: 45%
- viability, T/C [34]: 47%
- viability, T/C [35]: 33.7%
- viability, T/C [36]: 17.7%

Structure (SMILES): C#Cc1c(F)ccc2cc(O)cc(-c3ncc4c(N5CC6CCC(C5)N6)nc(OCC56CCCN5CC(F)C6)nc4c3F)c12 (centres undefined) + Cc1[nH]c2ccc(F)cc2c1-c1nc2c3cccnc3c3ncccc3c2[nH]1
- IC50 (second compound 0.0316 µM): 74.3 nM
- IC50 (second compound 0.1 µM): 85.4 nM
- IC50 (second compound 0.316 µM): 64.1 nM
- IC50 (second compound 1 µM): 61.3 nM
- IC50 (second compound 3.16 µM): 51.7 nM
- IC50 (second compound 10 µM): < 31.6 nM
- viability, T/C [1]: 94.1%
- viability, T/C [2]: 34.5%
- viability, T/C [3]: 14.3%
- viability, T/C [4]: 7.64%
- viability, T/C [5]: 7.24%
- viability, T/C [6]: 5.55%
- viability, T/C [7]: 106%
- viability, T/C [8]: 41.1%
- viability, T/C [9]: 14.2%
- viability, T/C [10]: 8.6%
- viability, T/C [11]: 7.78%
- viability, T/C [12]: 5.66%
- viability, T/C [13]: 78.1%
- viability, T/C [14]: 30.7%
- viability, T/C [15]: 18.1%
- viability, T/C [16]: 7.67%
- viability, T/C [17]: 7.43%
- viability, T/C [18]: 3.69%
- viability, T/C [19]: 68.6%
- viability, T/C [20]: 36%
- viability, T/C [21]: 17.7%
- viability, T/C [22]: 7.93%
- viability, T/C [23]: 6.21%
- viability, T/C [24]: 5.18%
- viability, T/C [25]: 56%
- viability, T/C [26]: 42.3%
- viability, T/C [27]: 19.2%
- viability, T/C [28]: 10.7%
- viability, T/C [29]: 5.86%
- viability, T/C [30]: 3.99%
- viability, T/C [31]: 47.4%
- viability, T/C [32]: 38.2%
- viability, T/C [33]: 16.8%
- viability, T/C [34]: 7.64%
- viability, T/C [35]: 7.32%
- viability, T/C [36]: 2.6%

From PubChem BioAssay AID2060512 (Molecular Pharmacology Branch, DTP, NCI, 2025)
